Test results published in patent publication US8642627B2 (priority 2002, dated 2014).
Like-named read-outs stand apart in the source and are kept apart here.

Experiments:
[1] = Andersen Cascade Impactor (ACI) experiment; type: physicochemical
[2] = apparent pH 6.5, 90% ethanol
[3] = aqueous system, 20° C.; cited from earlier work
adult = conditions: cited from earlier work
[4] = cited from earlier work

With `CN1CCCC1c1cccnc1` (stereo not shown) [nicotine, 3-(1-methyl-2-pyrrolidinyl)-pyridine] the “behaviour of nicotine in the aerosol droplets” value ([1]; formulation at apparent pH 4.0, nicotine in salt form) was “remains in the liquid droplets”, the “behaviour of nicotine in the aerosol droplets” value ([1]; formulation at apparent pH 6.0) was “escapes from the liquid droplets as a vapor” and the “share of nicotine in its free base form” value ([1]; formulation at apparent pH 6.0) was “approximately 15%”. For the same compound, the “share of nicotine in its free base form” value [2] was 50%, the pKa (physchem; apparent pKa of nicotine, 90% ethanol, titration curve with sulphuric acid) was 6.5 and the pKa (physchem; apparent pKa, ethanol-based system, 20° C.) was about 6.5. For the same compound, the “pKa for the acid dissociation constant of the mono protonated form of nicotine” value [3] was “approximately 8.0”, the “amount that may kill an adult” value (adult) was “Approximately forty” and the “arterial levels exceeding the venous levels” value ([4]; in vivo) was “six- to ten-fold”. The “time to reach the brain after inhalation” value ([4]; smoking of a cigarette) was “ten”.
